Data: US9951049B2, “Pyrazole linked benzimidazole conjugates and a process for preparation thereof” (Council of Scientific & Industrial Reseach, priority 2014, dated 2018)
Entries after “also recorded” stand apart in the source; their conditions may differ. Like-named read-outs stand apart in the source and are kept apart here.

What was measured:
SK-OV-3 = assay: NCI SRB screen, SK-OV-3; conditions: Homo sapiens, SK-OV-3, 48 h, read-out: GI50 values
NCI-H23 = assay: NCI SRB screen, NCI-H23; conditions: Homo sapiens, NCI-H23, 48 h, read-out: GI50 values
MOLT-4 = assay: NCI SRB screen, MOLT-4; conditions: Homo sapiens, MOLT-4, 48 h, read-out: GI50 values
Breast Cancer cell lines = assay: NCI SRB screen, Breast Cancer panel average; conditions: Homo sapiens, 48 h, read-out: Log10 GI50 (converted)
UACC-257 = assay: NCI SRB screen, UACC-257; conditions: Homo sapiens, UACC-257, 48 h, read-out: GI50 values
[1] = tested on: Ovarian cancer cell lines; assay: NCI SRB screen, Ovarian panel average; conditions: Homo sapiens, 48 h, read-out: Log10 GI50 (converted)
SK-MEL-28 = assay: NCI SRB screen, SK-MEL-28; conditions: Homo sapiens, SK-MEL-28, 48 h, read-out: GI50 values
MDA-MB-435 = assay: NCI SRB screen, MDA-MB-435 (Breast panel); conditions: Homo sapiens, MDA-MB-435, 48 h, read-out: GI50 values
UO-31 = assay: NCI SRB screen, UO-31; conditions: Homo sapiens, UO-31, 48 h, read-out: GI50 values
KM12 = assay: NCI SRB screen, KM12; conditions: Homo sapiens, KM12, 48 h, read-out: GI50 values
SF-268 = assay: NCI SRB screen, SF-268; conditions: Homo sapiens, SF-268, 48 h, read-out: GI50 values
SNB-75 = assay: NCI SRB screen, SNB-75; conditions: Homo sapiens, SNB-75, 48 h, read-out: GI50 values
RXF 393 = assay: NCI SRB screen, RXF 393; conditions: Homo sapiens, RXF 393, 48 h, read-out: GI50 values
CAKI-1 = assay: NCI SRB screen, CAKI-1; conditions: Homo sapiens, CAKI-1, 48 h, read-out: GI50 values
HT29 = assay: NCI SRB screen, HT29; conditions: Homo sapiens, HT-29, 48 h, read-out: GI50 values
U251 = assay: NCI SRB screen, U251; conditions: Homo sapiens, U-251, 48 h, read-out: GI50 values
PC-3 = assay: NCI SRB screen, PC-3; conditions: Homo sapiens, PC-3, 48 h, read-out: GI50 values
HCT-15 = assay: NCI SRB screen, HCT-15; conditions: Homo sapiens, HCT-15, 48 h, read-out: GI50 values
[2] = tested on: Prostate cancer cell lines; assay: NCI SRB screen, Prostate panel average; conditions: Homo sapiens, 48 h, read-out: Log10 GI50 (converted)
DU-145 = assay: NCI SRB screen, DU-145; conditions: Homo sapiens, DU-145, 48 h, read-out: GI50 values
A498 = assay: NCI SRB screen, A498; conditions: Homo sapiens, A498, 48 h, read-out: GI50 values
SW-620 = assay: NCI SRB screen, SW-620; conditions: Homo sapiens, SW-620, 48 h, read-out: GI50 values
OVCAR-8 = assay: NCI SRB screen, OVCAR-8; conditions: Homo sapiens, OVCAR-8, 48 h, read-out: GI50 values
NCIH322M = assay: NCI SRB screen, NCIH322M; conditions: Homo sapiens, NCI-H322M, 48 h, read-out: GI50 values
IGROV1 = assay: NCI SRB screen, IGROV1; conditions: Homo sapiens, IGROV-1, 48 h, read-out: GI50 values
RPMI-8226 = assay: NCI SRB screen, RPMI-8226; conditions: Homo sapiens, RPMI-8226, 48 h, read-out: GI50 values
[3] = tested on: fifty six human tumor cell lines; assay: NCI human tumor cell line screen (48 h, SRB), all cell lines; conditions: for GI50: Homo sapiens
COLO-205 = assay: NCI SRB screen, COLO-205; conditions: Homo sapiens, COLO 205, 48 h, read-out: GI50 values
SF-539 = assay: NCI SRB screen, SF-539; conditions: Homo sapiens, 48 h, read-out: GI50 values
UACC-62 = assay: NCI SRB screen, UACC-62; conditions: Homo sapiens, UACC-62, 48 h, read-out: GI50 values
Leukemia cell lines = assay: NCI SRB screen, Leukemia panel average; conditions: Homo sapiens, 48 h, read-out: Log10 GI50 (converted)
NCI-H460 = assay: NCI SRB screen, NCI-H460; conditions: Homo sapiens, NCI-H460, 48 h, read-out: GI50 values

COc1cc(-c2cc(-c3nc4cc(Cl)c(Cl)cc4[nH]3)[nH]n2)cc(OC)c1OC [10f, 5,6-dichloro-2-(3-(3,4,5-trimethoxyphenyl)-1H-pyrazol-5-yl)-1H-benzo[d]imidazole]
GI50 (SK-OV-3): 1.73 µM | GI50 (NCI-H23): 3.4 µM | GI50 (MOLT-4): 2.49 µM | GI50 (Breast Cancer cell lines): 3.16 µM | GI50 (UACC-257): 3.77 µM | GI50 [1]: 4.47 µM | GI50 (SK-MEL-28): 3.07 µM | GI50 (MDA-MB-435): 3.49 µM | GI50 (UO-31): 2.47 µM | GI50 (KM12): 3.56 µM | GI50 (SF-268): 3.95 µM | GI50 (SNB-75): 3.12 µM | GI50 (RXF 393): 3.17 µM | GI50 (CAKI-1): 3.81 µM | GI50 (HT29): 3.42 µM | GI50 (U251): 2.97 µM | GI50 (PC-3): 2.2 µM | GI50 (HCT-15): 2.89 µM | GI50 [2]: 3.02 µM | GI50 (DU-145): 4.16 µM | GI50 (A498): 4.21 µM | GI50 (SW-620): 4.47 µM | GI50 (OVCAR-8): 2.51 µM | GI50 (NCIH322M): 3.29 µM | GI50 (IGROV1): 3.86 µM | GI50 (RPMI-8226): 1.75 µM | GI50 ([3]; read-out: GI50 value range): 0.34 to 10 µM | GI50 ([3]; read-out: Log10 GI50 mean graph midpoint (MG_MID) (converted)): 3.31 µM | anticancer activity (in words) ([3]; human cancer cell lines of the NCI panel): significant anticancer activity; also recorded: pronounced activities | Log10 TGI mean graph midpoint (MG_MID) ([3]; human tumor cell lines, mean over the panel, total growth inhibition): −4.88 | GI50 (COLO-205): 3.77 µM | GI50 (SF-539): 3.28 µM | GI50 (UACC-62): 1.94 µM | GI50 (Leukemia cell lines): 2.75 µM | GI50 (NCI-H460): 3.33 µM
